Where a name gives a salt, the structure may show the parent alone.
How the values were obtained:
[1] = PDE10a perfused brain permeability study: plasma concentrations at 30 and 120 min, brain concentration at 120 min, brain/plasma ratio; conditions: male, Sprague-Dawley, rat; for Kp at 2 h: brain/plasma
Procedure: PDE10a-Brain Permeability Assay
(§1) A. PDE10a-Perfused Brain Permeability Study Protocol
(§2) Drug administration by oral gavage, subcutaneous injection or intravenous was carried out using male Sprague Dawley rats under IACUC protocol (SH-MET3010). Male Sprague Dawley rats (Charles River) ˜300-350 g were maintained on a 4% standard rodent diet (Test Diet 5001). They are allowed ad libitum access to water and food. Room temperature was maintained at 64° F. and humidity at 30-70%.
(§3) Three animals per compound were provided a dose of 2 mg/mL in 20% HpbCD/Tris pH 8 by tail i.v. or 30 mpk p.o. or s.c. in 20% HpbCD/Tris pH 8, with PDE10a antagonists. A first blood sample was collected at 30 min via retro-orbital sinus (anesthetic by 70% CO2/30% O2) into heparinzed plasma separator tubes. The blood was centrifuged and 100 μL plasma was placed into a 96 well plate and saved on dry ice.
(§4) After the 120 min, the final blood sample was collected via retro-orbital sinus under anesthesia by IP 0.5 cc injection of a 4/1 mixture of Ketaset: AnaSed [(prepared 10 mL Ketaset (100 mg/mL Ketamine)+2.5 mL AnaSed (20 mg/mL Xylazine)]. The rats were then perfused with 400 mL heparinized saline (10,000 units/L) through the left ventricle of the heart; the brains were then removed (not including the medulla), weighed and homogenized in PBS (4 mL/g tissue). The samples were stored at −80° C. and submitted for chemical analysis of blood and brain concentrations. Endpoints of sample analysis consists of the plasma concentrations at 30 and 120 min, plus brain concentrations at 120 min.

[2] = molecular target: Human recombinant PDE10A2 (Homo sapiens (Human), UniProt Q9Y233); test: In vitro hPDE10a: human recombinant PDE10A2 scintillation proximity assay, IC50; type: biochemical; conditions: human recombinant PDE10A2, SPA, 60 nM cAMP; read-out: hPDE10a2 IC50
How it was run: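 Purified recombinant human PDE10A2 (Ni-sepharose) was assayed by SPA, counting [3H]-AMP product captured on yttrium silicate beads added in zinc sulphate stop solution. Inhibition was expressed as % of activity without compound, with a no-enzyme low control. Repeat data points were aggregated.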

[3] = molecular target: Rat recombinant PDE10a (rPDE10a) (Rattus norvegicus (Rat), UniProt Q9QYJ6); test: In vitro assay PDE10a: rat recombinant PDE10a SPA with 3H-cAMP substrate, IC50; type: biochemical; conditions: 60 nM cAMP, read-out: rPDE10a2 IC50
How it was run: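 Enzyme expressed in Sf9 cells via baculovirus and Ni-sepharose purified; reaction with 3H-cAMP ran 60 min at rt, stopped with PDE SPA beads. Compounds diluted in DMSO at 100-fold final concentration; blanks omitted enzyme.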

[4] = rat, in vivo
Procedure: PDE10a-Brain Permeability Assay
as §1, §2, §3, §4

Chain of Rat recombinant PDE10a (rPDE10a) (Q9QYJ6 whole entry): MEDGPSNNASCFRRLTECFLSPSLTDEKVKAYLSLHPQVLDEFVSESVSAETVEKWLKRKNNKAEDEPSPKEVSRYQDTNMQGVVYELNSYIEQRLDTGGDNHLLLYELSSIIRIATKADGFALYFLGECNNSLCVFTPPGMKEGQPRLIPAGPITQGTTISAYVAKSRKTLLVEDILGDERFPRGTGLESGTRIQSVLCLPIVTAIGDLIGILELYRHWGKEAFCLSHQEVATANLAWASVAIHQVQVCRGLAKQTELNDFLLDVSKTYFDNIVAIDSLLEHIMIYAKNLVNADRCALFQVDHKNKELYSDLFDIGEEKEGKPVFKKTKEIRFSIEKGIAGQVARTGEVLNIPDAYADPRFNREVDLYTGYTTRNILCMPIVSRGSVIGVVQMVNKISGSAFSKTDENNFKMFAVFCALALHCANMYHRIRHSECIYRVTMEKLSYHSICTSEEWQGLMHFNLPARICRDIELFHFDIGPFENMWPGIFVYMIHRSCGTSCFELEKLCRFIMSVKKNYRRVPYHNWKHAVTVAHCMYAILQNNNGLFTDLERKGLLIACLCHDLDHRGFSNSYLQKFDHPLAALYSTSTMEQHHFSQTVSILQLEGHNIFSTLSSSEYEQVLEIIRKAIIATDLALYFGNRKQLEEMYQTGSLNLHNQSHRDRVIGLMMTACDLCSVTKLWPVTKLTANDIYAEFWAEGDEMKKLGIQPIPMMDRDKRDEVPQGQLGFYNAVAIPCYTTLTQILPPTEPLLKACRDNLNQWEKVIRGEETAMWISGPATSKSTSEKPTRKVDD
Chain of Human recombinant PDE10A2 (Q9Y233 267-1055): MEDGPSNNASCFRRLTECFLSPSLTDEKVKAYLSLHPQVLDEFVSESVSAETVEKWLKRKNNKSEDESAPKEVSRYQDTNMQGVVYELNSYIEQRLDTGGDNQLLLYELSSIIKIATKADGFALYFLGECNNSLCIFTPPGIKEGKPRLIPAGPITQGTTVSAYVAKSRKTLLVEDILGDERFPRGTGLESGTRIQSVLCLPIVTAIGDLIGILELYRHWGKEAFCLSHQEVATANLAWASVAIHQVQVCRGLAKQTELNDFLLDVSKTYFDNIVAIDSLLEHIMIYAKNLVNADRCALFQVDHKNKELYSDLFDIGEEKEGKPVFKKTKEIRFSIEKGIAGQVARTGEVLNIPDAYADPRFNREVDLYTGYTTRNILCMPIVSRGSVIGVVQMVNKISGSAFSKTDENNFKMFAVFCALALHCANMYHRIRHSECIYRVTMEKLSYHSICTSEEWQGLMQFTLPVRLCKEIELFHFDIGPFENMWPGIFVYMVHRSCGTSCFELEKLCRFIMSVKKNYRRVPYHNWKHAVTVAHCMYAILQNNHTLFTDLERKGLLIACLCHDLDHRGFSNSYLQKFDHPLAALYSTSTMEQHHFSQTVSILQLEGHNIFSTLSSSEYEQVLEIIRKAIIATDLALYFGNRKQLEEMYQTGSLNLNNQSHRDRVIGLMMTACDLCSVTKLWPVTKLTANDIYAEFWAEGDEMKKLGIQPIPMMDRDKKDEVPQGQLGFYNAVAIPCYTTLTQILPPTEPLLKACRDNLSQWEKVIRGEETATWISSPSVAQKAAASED

| concentration at 2 h ([1]; brain) [ng/g] | Kp at 2 h [1] | concentration at 2 h ([1]; plasma) [ng/mL] | IC50 [2] [nM] | IC50 [3] [nM] | Brain conc 2 h [4] [ng/g] | Plasma conc 2 h [4] [ng/mL] | Ratio Br/Pl Mean 2 h [4] | Structure (SMILES) |
| --- | --- | --- | --- | --- | --- | --- | --- | --- |
| 0 | 0 | 83 | 4 | 1 | – | – | – | O=C(O)CCNC(=O)c1ccc(-c2c(/C=C/c3ccc4ccccc4n3)nc3c(N4CCOCC4)ccnn23)cc1 [compound 44, (E)-3-(4-(8-Morpholino-2-(2-(quinolin-2-yl)vinyl)imidazo[1,2-b]pyridazin-3-yl)benzamido)propanoic acid] |
| 152 | 0.31 | 492 | 18 | 2 | – | – | – | NS(=O)(=O)N1CCN(c2ccc(-c3c(CSc4ccc5ccccc5n4)nc4c(N5CCOCC5)ccnn34)cn2)CC1 [Cpd 20, 4-(5-(8-Morpholino-2-((quinolin-2-ylthio)methyl)imidazo[1,2-b]pyridazin-3-yl)pyridin-2-yl)piperazine-1-sulfonamide] |
| – | – | – | 2 | – | 0 | 106 | 0 | O=C(O)CCc1ccc(-c2c([C@H]3C[C@H](c4ccc5ccccc5n4)C3)nc3c(N4CCOCC4)ccnn23)cc1 [compound 169, 3-(4-(8-Morpholino-2-((1r,3r)-3-(quinolin-2-yl)cyclobutyl)imidazo[1,2-b]pyridazin-3-yl)phenyl)propanoic acid] |
| 0 | 0 | 284 | 2 | 2 | – | – | – | O=C(O)CCc1ccc(-c2c(/C=C/c3ccc4ccccc4n3)nc3c(N4CCOCC4)ccnn23)cn1 [Cpd 125, (E)-3-(5-(8-Morpholino-2-(2-(quinolin-2-yl)vinyl)imidazo[1,2-b]pyridazin-3-yl)pyridin-2-yl)propanoic acid] |
| 0 | 0 | 199 | 3 | 3 | – | – | – | O=C(O)c1ccc(-c2c(/C=C/c3ccc4ccccc4n3)nc3c(N4CCOCC4)ccnn23)cc1F [compound 103, (E)-2-Fluoro-4-(8-morpholino-2-(2-(quinolin-2-yl)vinyl)imidazo[1,2-b]pyridazin-3-yl)benzoic acid] |
| 0 | 0 | 38 | 1 | 1 | – | – | – | O=C(O)c1ccc(-c2c(CCc3ccc4ccccc4n3)nc3c(N4CCOCC4)ccnn23)cc1 [compound 41, 4-(8-Morpholino-2-(2-(quinolin-2-yl)ethyl)imidazo[1,2-b]pyridazin-3-yl)benzoic acid] |
| 16.9 | 0.02 | 725 | 22 | 5 | – | – | – | COc1cc(-c2c(/C=C/c3ccc4ccccc4n3)nc3c(N4CCOCC4)ccnn23)ccc1C(=O)O [compound 67, (E)-2-Methoxy-4-(8-morpholino-2-(2-(quinolin-2-yl)vinyl)imidazo[1,2-b]pyridazin-3-yl)benzoic acid] |
| 0 | 0 | 926 | 4 | 7 | – | – | – | CS(=O)(=O)NC(=O)c1ccc(-c2c(/C=C/c3ccc4ccccc4n3)nc3c(N4CCOCC4)ccnn23)cc1F [compound 134, (E)-2-Fluoro-N-(methylsulfonyl)-4-(8-morpholino-2-(2-(quinolin-2-yl)vinyl)imidazo[1,2-b]pyridazin-3-yl)benzamide] |
| 40.2 | 2.5 | 107 | 1 | 2 | – | – | – | CS(=O)(=O)NC(=O)c1ccc(-c2c(CCc3ccc4ccccc4n3)nc3c(N4CCOCC4)ccnn23)cn1 [Cpd 30, N-(Methylsulfonyl)-5-(8-morpholino-2-(2-(quinolin-2-yl)ethyl)imidazo[1,2-b]pyridazin-3-yl)picolinamide trifluoroacetic acid salt] |
| 0 | 0 | 155 | 4 | 5 | – | – | – | O=c1[nH]c(-c2ccc(-c3c(/C=C/c4ccc5ccccc5n4)nc4c(N5CCOCC5)ccnn34)cc2)no1 [Cpd 102, (E)-3-(4-(8-Morpholino-2-(2-(quinolin-2-yl)vinyl)imidazo[1,2-b]pyridazin-3-yl)phenyl)-1,2,4-oxadiazol-5(4H)-one] |
| 0 | 0 | 499 | 2 | 2 | – | – | – | O=C(O)c1ccc(-c2c(/C=C/c3ccc4ccccc4n3)nc3c(N4CCOCC4)ccnn23)cc1 [compound 40, (E)-4-(8-Morpholino-2-(2-(quinolin-2-yl)vinyl)imidazo[1,2-b]pyridazin-3-yl)benzoic acid trifluoroacetic acid salt] |
| 0 | 0 | 15.7 | 3 | 2 | – | – | – | O=C(O)CNc1ccc(-c2c(/C=C/c3ccc4ccccc4n3)nc3c(N4CCOCC4)ccnn23)cn1 [Cpd 17, (E)-2-(5-(8-Morpholino-2-(2-(quinolin-2-yl)vinyl)imidazo[1,2-b]pyridazin-3-yl)pyridin-2-ylamino)acetic acid] |
| 0 | 0 | 86.6 | 4 | 9 | – | – | – | O=C(O)c1cccc(-c2c(/C=C/c3ccc4ccccc4n3)nc3c(N4CCOCC4)ccnn23)c1 [Cpd 124, (E)-3-(8-Morpholino-2-(2-(quinolin-2-yl)vinyl)imidazo[1,2-b]pyridazin-3-yl)benzoic acid] |
| 0 | 0 | 205 | 1 | 1 | – | – | – | CS(=O)(=O)NC(=O)c1ccc(-c2c(C#Cc3ccc4ccccc4n3)nc3c(N4CCOCC4)ccnn23)cc1 [compound 83, N-(Methylsulfonyl)-4-(8-morpholino-2-(quinolin-2-ylethynyl)imidazo[1,2-b]pyridazin-3-yl)benzamide] |
| 0 | 0 | 23 | 7 | 11 | – | – | – | Oc1ncn(-c2ccc(-c3c(/C=C/c4ccc5ccccc5n4)nc4c(N5CCOCC5)ccnn34)cc2)n1 [Cpd 54, (E)-1-(4-(8-Morpholino-2-(2-(quinolin-2-yl)vinyl)imidazo[1,2-b]pyridazin-3-yl)phenyl)-1H-1,2,4-triazol-3-ol trifluoroacetic acid salt] |
| 0 | 0 | 34 | 1 | 1 | – | – | – | CC(=O)NS(=O)(=O)c1ccc(-c2c(CCc3ccc4ccccc4n3)nc3c(N4CCOCC4)ccnn23)cc1 [compound 42, N-((4-(8-Morpholino-2-(2-(quinolin-2-yl)ethyl)imidazo[1,2-b]pyridazin-3-yl)phenyl)sulfonyl)acetamide] |
| 0 | 0 | 1.8 | 2 | 1 | – | – | – | CS(=O)(=O)NC(=O)c1ccc(-c2c(CCc3ccc4ccccc4n3)nc3c(N4CCOCC4)ccnn23)cc1 [compound 43, N-(Methylsulfonyl)-4-(8-morpholino-2-(2-(quinolin-2-yl)ethyl)imidazo[1,2-b]pyridazin-3-yl)benzamide] |
| 54 | 0.16 | 326 | 52 | 41 | – | – | – | OC(c1ccc(-c2c(/C=C/c3ccc4ccccc4n3)nc3c(N4CCOCC4)ccnn23)cc1)(C(F)(F)F)C(F)(F)F [compound 52, (E)-1,1,1,3,3,3-Hexafluoro-2-(4-(8-morpholino-2-(2-(quinolin-2-yl)vinyl)imidazo[1,2-b]pyridazin-3-yl)phenyl)propan-2-ol] |
| 0 | 0 | 147 | 5 | 3 | – | – | – | CS(=O)(=O)NC(=O)c1ccc(-c2c(/C=C/c3ccc4ccccc4n3)nc3c(N4CCOCC4)ccnn23)cc1 [compound 39, (E)-N-(Methylsulfonyl)-4-(8-morpholino-2-(2-(quinolin-2-yl)vinyl)imidazo[1,2-b]pyridazin-3-yl)benzamide] |

| Structure (SMILES) | concentration at 2 h ([1]; brain) [ng/g] | Kp at 2 h [1] | concentration at 2 h ([1]; plasma) [ng/mL] | IC50 [2] [nM] | IC50 [3] [nM] | Brain conc 2 h [4] [ng/g] | Plasma conc 2 h [4] [ng/mL] | Ratio Br/Pl Mean 2 h [4] |
| --- | --- | --- | --- | --- | --- | --- | --- | --- |
| O=C(O)CNc1ccc(-c2c(C#Cc3ccc4ccccc4n3)nc3c(N4CCOCC4)ccnn23)cn1 [Cpd 24, 2-(5-(8-Morpholino-2-(2-(quinolin-2-yl)ethynyl)imidazo[1,2-b]pyridazin-3-yl)pyridin-2-ylamino)acetic acid trifluoroacetic acid salt] | 1.35 | 0.2 | 5.37 | 1 | 1 | – | – | – |
